Results published in PubChem BioAssay (NCI).
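How tested: cells in 96-well plates exposed to compound for 48 hours at five concentrations. The concentration for full growth arrest is given as TGI.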 Where a SMILES comes first, the peptide text is derived from it. Bridges are numbered along the chain shown (N, C = ends). [ ]: non-standard residue; d: D form. The star is where a group is joined. Cya = N[CH](CS(=O)(=O)O)C(=O)O; X49 = CC(C)CCCCCCCC(O)CC(=O)*; GABA = NCCCC(=O)O

Assays:
Test in all cases: NCI-60 cell line screen, 48 h
PC-3 prostate = test system: PC-3 prostate
NCI-H226 lung = test system: NCI-H226 lung
NCI-H23 lung = test system: NCI-H23 lung
U251 CNS = test system: U251 CNS
SNB-75 CNS = test system: SNB-75 CNS
MOLT-4 leukemia = test system: MOLT-4 leukemia
SK-MEL-2 melanoma = test system: SK-MEL-2 melanoma
SK-MEL-5 melanoma = test system: SK-MEL-5 melanoma
MDA-MB-231 breast = test system: MDA-MB-231 breast
T-47D breast = test system: T-47D breast
MDA-MB-435 = test system: MDA-MB-435
SF-295 CNS = test system: SF-295 CNS
OVCAR-5 ovarian = test system: OVCAR-5 ovarian
LOX IMVI melanoma = test system: LOX IMVI melanoma
NCI-H460 lung = test system: NCI-H460 lung
SK-MEL-28 melanoma = test system: SK-MEL-28 melanoma
SR leukemia = test system: SR leukemia
K-562 leukemia = test system: K-562 leukemia
DU-145 prostate = test system: DU-145 prostate
A549 NSCLC = test system: A549 NSCLC
SNB-19 CNS = test system: SNB-19 CNS
NCI/ADR-RES ovarian = test system: NCI/ADR-RES ovarian
EKVX NSCLC = test system: EKVX NSCLC
IGROV1 ovarian = test system: IGROV1 ovarian
HCT-15 colon = test system: HCT-15 colon
A498 renal = test system: A498 renal
CCRF-CEM leukemia = test system: CCRF-CEM leukemia
HS 578T breast = test system: HS 578T breast
HOP-92 NSCLC = test system: HOP-92 NSCLC
HT29 colon = test system: HT29 colon
KM12 colon = test system: KM12 colon
TK-10 renal = test system: TK-10 renal
MCF7 breast = test system: MCF7 breast
OVCAR-4 ovarian = test system: OVCAR-4 ovarian
MDA-N = test system: MDA-N
OVCAR-8 ovarian = test system: OVCAR-8 ovarian
NCI-H522 lung = test system: NCI-H522 lung
BT-549 breast = test system: BT-549 breast
HOP-62 NSCLC = test system: HOP-62 NSCLC
ACHN renal = test system: ACHN renal
UO-31 renal = test system: UO-31 renal
HL-60(TB) leukemia = test system: HL-60(TB) leukemia
MALME-3M melanoma = test system: MALME-3M melanoma
HCC-2998 colon = test system: HCC-2998 colon
SK-OV-3 ovarian = test system: SK-OV-3 ovarian
SN12C renal = test system: SN12C renal
HCT-116 colon = test system: HCT-116 colon
M14 melanoma = test system: M14 melanoma
OVCAR-3 ovarian = test system: OVCAR-3 ovarian
COLO 205 colon = test system: COLO 205 colon
SW-620 colon = test system: SW-620 colon
786-0 renal = test system: 786-0 renal
RPMI-8226 leukemia = test system: RPMI-8226 leukemia
UACC-257 melanoma = test system: UACC-257 melanoma
CAKI-1 renal = test system: CAKI-1 renal
UACC-62 melanoma = test system: UACC-62 melanoma
SF-539 CNS = test system: SF-539 CNS

CCOC(=O)C(CS)NC(=O)CCCCCCCC(=O)O (stereo not drawn)
TGI (PC-3 prostate): > 100 µM | TGI (NCI-H226 lung): > 100 µM | TGI (NCI-H23 lung): > 100 µM | TGI (U251 CNS): > 100 µM | TGI (SNB-75 CNS): > 100 µM | TGI (MOLT-4 leukemia): > 100 µM | TGI (SK-MEL-2 melanoma): > 100 µM | TGI (SK-MEL-5 melanoma): > 100 µM | TGI (MDA-MB-231 breast): > 100 µM | TGI (T-47D breast): > 100 µM | TGI (MDA-MB-435): > 100 µM | TGI (SF-295 CNS): > 100 µM | TGI (OVCAR-5 ovarian): > 100 µM | TGI (LOX IMVI melanoma): > 100 µM | TGI (NCI-H460 lung): > 100 µM | TGI (SK-MEL-28 melanoma): > 100 µM | TGI (SR leukemia): > 100 µM | TGI (K-562 leukemia): > 100 µM | TGI (DU-145 prostate): > 100 µM | TGI (A549 NSCLC): > 100 µM | TGI (SNB-19 CNS): > 100 µM | TGI (NCI/ADR-RES ovarian): > 100 µM | TGI (EKVX NSCLC): > 100 µM | TGI (IGROV1 ovarian): > 100 µM | TGI (HCT-15 colon): > 100 µM | TGI (A498 renal): > 100 µM | TGI (CCRF-CEM leukemia): > 100 µM | TGI (HS 578T breast): > 100 µM | TGI (HOP-92 NSCLC): > 100 µM | TGI (HT29 colon): > 100 µM | TGI (KM12 colon): > 100 µM | TGI (TK-10 renal): > 100 µM | TGI (MCF7 breast): > 100 µM | TGI (OVCAR-4 ovarian): > 100 µM | TGI (MDA-N): > 100 µM | TGI (OVCAR-8 ovarian): > 100 µM | TGI (NCI-H522 lung): > 100 µM | TGI (BT-549 breast): > 100 µM | TGI (HOP-62 NSCLC): > 100 µM | TGI (ACHN renal): > 100 µM | TGI (UO-31 renal): > 100 µM | TGI (HL-60(TB) leukemia): > 100 µM | TGI (MALME-3M melanoma): > 100 µM | TGI (HCC-2998 colon): > 100 µM | TGI (SK-OV-3 ovarian): > 100 µM | TGI (SN12C renal): > 100 µM | TGI (HCT-116 colon): > 100 µM | TGI (M14 melanoma): > 100 µM | TGI (OVCAR-3 ovarian): > 100 µM | TGI (COLO 205 colon): > 100 µM | TGI (SW-620 colon): > 100 µM | TGI (786-0 renal): > 100 µM | TGI (RPMI-8226 leukemia): > 100 µM | TGI (UACC-257 melanoma): > 100 µM | TGI (CAKI-1 renal): > 100 µM | TGI (UACC-62 melanoma): > 100 µM

CC(C)CCCCCCCC(O)CC(=O)NC(CS(=O)(=O)O)C(=O)NC(CC(C)C)C(=O)NCCCC(=O)NC(Cc1cnc[nH]1)C(=O)NC(C)C(=O)NC1C(=O)NC(C(C)O)C(=O)NC(Cc2cnc[nH]2)C(=O)NC(C)C(=O)NC(C(C)O)C(=O)OC1C (stereo not drawn) (X49-[Cya]L[GABA]HATTHAT; ester 6-C; configuration not given here)
TGI (PC-3 prostate): > 25 µM | TGI (NCI-H226 lung): > 25 µM | TGI (NCI-H23 lung): > 25 µM | TGI (U251 CNS): > 25 µM | TGI (SNB-75 CNS): > 25 µM | TGI (MOLT-4 leukemia): > 25 µM | TGI (SK-MEL-2 melanoma): > 25 µM | TGI (SK-MEL-5 melanoma): > 25 µM | TGI (MDA-MB-231 breast): > 25 µM | TGI (T-47D breast): > 25 µM | TGI (MDA-MB-435): > 25 µM | TGI (SF-295 CNS): > 25 µM | TGI (OVCAR-5 ovarian): > 25 µM | TGI (LOX IMVI melanoma): > 25 µM | TGI (NCI-H460 lung): > 25 µM | TGI (SK-MEL-28 melanoma): > 25 µM | TGI (SR leukemia): > 25 µM | TGI (K-562 leukemia): > 25 µM | TGI (DU-145 prostate): > 25 µM | TGI (A549 NSCLC): > 25 µM | TGI (SNB-19 CNS): > 25 µM | TGI (NCI/ADR-RES ovarian): > 25 µM | TGI (EKVX NSCLC): > 25 µM | TGI (IGROV1 ovarian): > 25 µM | TGI (HCT-15 colon): > 25 µM | TGI (A498 renal): > 25 µM | TGI (CCRF-CEM leukemia): > 25 µM | TGI (HS 578T breast): > 25 µM | TGI (SF-539 CNS): > 25 µM | TGI (HOP-92 NSCLC): > 25 µM | TGI (HT29 colon): > 25 µM | TGI (KM12 colon): > 25 µM | TGI (TK-10 renal): > 25 µM | TGI (MCF7 breast): > 25 µM | TGI (OVCAR-4 ovarian): > 25 µM | TGI (MDA-N): > 25 µM | TGI (OVCAR-8 ovarian): > 25 µM | TGI (NCI-H522 lung): > 25 µM | TGI (BT-549 breast): > 25 µM | TGI (HOP-62 NSCLC): > 25 µM | TGI (ACHN renal): > 25 µM | TGI (UO-31 renal): > 25 µM | TGI (HL-60(TB) leukemia): > 25 µM | TGI (MALME-3M melanoma): > 25 µM | TGI (HCC-2998 colon): > 25 µM | TGI (SK-OV-3 ovarian): > 25 µM | TGI (SN12C renal): > 25 µM | TGI (HCT-116 colon): > 25 µM | TGI (M14 melanoma): > 25 µM | TGI (OVCAR-3 ovarian): > 25 µM | TGI (COLO 205 colon): > 25 µM | TGI (SW-620 colon): > 25 µM | TGI (786-0 renal): > 25 µM | TGI (RPMI-8226 leukemia): > 25 µM | TGI (UACC-257 melanoma): > 25 µM | TGI (CAKI-1 renal): > 25 µM | TGI (UACC-62 melanoma): > 25 µM
